In patent US20250059186A1, “Tricyclic Fused Heterocyclic PDE3/4 Dual Inhibitor and Use Thereof” (XIZANG HAISCO PHARMACEUTICAL CO., LTD., priority 2021, published 2025):
Read-outs that look alike come from different tables or passages of the source.

Legend:
[1] = target: PDE3A recombinant enzyme (Homo sapiens (Human), UniProt Q14432); assay: In vitro assay of inhibitory activity against PDE 3A enzyme (FP, FAM-cAMP); format: biochemical
Description: 1. In Vitro Assay of the Inhibitory Activity of Compounds Against PDE 3A and PDE 4B2 Enzymes
• Envision 2104 Multilabel Reader (PerkinElmer) • Black 96-well Plate (Cat #6005540, PerkinElmer) • PDE3A Assay Kit (BPS, Cat. 79736), PDE4B2 Assay Kit (BPS, Cat. 60343) • PDE3A recombinant enzyme • PDE4B2 recombinant enzyme • FAM-Cyclic-3′, 5′-AMP • PDE assay buffer • Binding Agent • Binding Agent Diluent (cAMP)
• 1) Prepare FAM cAMP working solution: 20 μL of FAM-Cyclic-3′, 5′-AMP stock was added to 1980 μL of PDE assay buffer. The mixture was added to all wells at 25 μL/well. • 2) Prepare compound solution: the test compounds were dissolved in DMSO to make a 10 mM stock solution. The compound stock solution was diluted in DMSO to a 100× Top Dose diluent. 5 μL of 100× Top Dose diluent was added to 45 μL of PDE assay buffer to prepare a compound Top Dose working solution. Then, the compound working solution was subjected to double dilution with PDE assay buffer containing 10% DMSO to prepare compound working solutions of various concentrations. The compound working solutions were added to compound wells at 5 μL/well. 5 μL of PDE assay buffer containing 10% DMSO was added to each control well. • 3) Prepare PDE enzyme solution: PDE3A and PDE4B2 enzyme stock solutions were diluted to 150 pg/μL and 50 pg/μL, respectively, with PDE assay buffer, and added to all compound wells and Vehicle control wells at 20 μL/well. 20 μL of PDE assay buffer was added to Blank control wells. • 4) React at room temperature for 1 h. • 5) Prepare Binding Agent: 80 μL of binding agent was added to 7920 μL of binding agent diluent, and the mixture was mixed well and added to all wells at 100 μL/well. • 6) React at room temperature for 1 h. • 7) Read FP on Envision. • 8) Calculation formula for original data:
[formula] • FPS=sample FP • FPV=Vehicle control FP • FPB=Blank control FP.
Nonlinear regression analysis of log[dose]-inhibition rate was performed by graphpad and IC50 was calculated.

[2] = tested on: methacholine-induced bronchoconstriction; assay: Inhibitory effect on methacholine-induced bronchoconstriction in guinea pigs (WBP, Penh); format: in vivo, guinea pig; details: male guinea pigs, oral dose of 10 mg/kg, 6 h after drug exposure
Description: 2. Study on the Inhibitory Effect of Compounds on Methacholine-Induced Bronchoconstriction in Guinea Pigs
Male guinea pigs were selected as test animals in this study. The drug-treated group was orally administered with RPL554, compound 1 and compound 7 at a dose of 10 mg/kg, respectively, and the control group was administered with an equal dose of solvent. The animals were placed in a WBP instrument aerosol chamber 2 h, 4 h and 6 h after drug exposure. After the animals were adapted, they inhaled 300 μL of […] solution (0.5 mg/mL) by nebulization. After the end of the methacholine (Mch) exposure, Penh values were recorded continuously for 7 minutes. The percentage of bronchoconstriction inhibition by the compounds was calculated based on the Penh values.

[3] = tested on: guinea pig tracheal rings; assay: Experiment on guinea pig tracheal rings (carbachol constriction); details: 10 μM single dose; for OT50 (50% inhibition onset time) / RT50 (50% inhibition recovery time): carbachol-constricted tracheal rings; for inhibition at 10 µM: Cavia porcellus, 6.75 h
Description: 3. Experiment on Guinea Pig Tracheal Rings
Experimental method: guinea pig tracheal rings were placed in a specific culture medium (Krebs-Henseleit) and balanced under 1 g tension for 40 minutes; carbachol was added in an amount sufficient to achieve 100% constriction of the tracheal rings; […] contractile tension of the tracheal rings.

[4] = in vivo; cited from earlier work
[5] = tested on: PDE4; details: cited from earlier work
[6] = cited from earlier work
[7] = class symbols, read-out: PDE 3A IC50
[8] = values in text, read-out: PDE 3 IC50

Sequence of PDE3A recombinant enzyme (Q14432 whole entry): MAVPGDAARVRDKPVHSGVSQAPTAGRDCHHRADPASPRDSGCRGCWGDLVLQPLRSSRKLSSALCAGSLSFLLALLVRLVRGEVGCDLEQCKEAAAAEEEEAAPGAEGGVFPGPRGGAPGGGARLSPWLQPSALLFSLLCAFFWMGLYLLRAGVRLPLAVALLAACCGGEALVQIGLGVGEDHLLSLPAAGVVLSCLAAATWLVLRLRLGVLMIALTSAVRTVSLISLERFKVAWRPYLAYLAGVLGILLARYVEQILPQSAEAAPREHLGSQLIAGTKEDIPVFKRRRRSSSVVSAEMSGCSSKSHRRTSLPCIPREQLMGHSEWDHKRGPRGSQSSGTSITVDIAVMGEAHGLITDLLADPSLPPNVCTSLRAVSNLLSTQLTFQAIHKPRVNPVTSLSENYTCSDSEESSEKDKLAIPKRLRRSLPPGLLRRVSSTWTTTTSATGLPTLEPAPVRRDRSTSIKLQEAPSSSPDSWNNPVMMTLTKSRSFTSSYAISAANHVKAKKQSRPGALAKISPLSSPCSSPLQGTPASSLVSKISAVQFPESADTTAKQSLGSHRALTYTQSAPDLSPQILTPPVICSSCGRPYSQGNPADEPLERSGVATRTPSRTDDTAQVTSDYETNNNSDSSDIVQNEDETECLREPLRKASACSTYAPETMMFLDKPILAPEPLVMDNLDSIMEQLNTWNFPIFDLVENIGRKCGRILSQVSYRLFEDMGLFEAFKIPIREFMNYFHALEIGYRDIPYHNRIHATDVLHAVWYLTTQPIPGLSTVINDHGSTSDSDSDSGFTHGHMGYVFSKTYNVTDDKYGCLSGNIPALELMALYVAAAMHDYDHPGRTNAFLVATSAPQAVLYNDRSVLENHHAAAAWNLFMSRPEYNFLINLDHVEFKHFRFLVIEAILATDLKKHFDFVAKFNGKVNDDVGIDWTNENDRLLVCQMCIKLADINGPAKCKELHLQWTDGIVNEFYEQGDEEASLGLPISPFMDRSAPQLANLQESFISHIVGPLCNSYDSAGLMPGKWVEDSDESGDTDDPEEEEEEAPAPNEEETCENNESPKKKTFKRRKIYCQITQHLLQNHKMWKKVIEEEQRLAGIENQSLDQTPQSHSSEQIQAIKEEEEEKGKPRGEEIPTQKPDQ

[2H]C([2H])([2H])Oc1cc2c(cc1OC)CCn1c-2c/c(=N\c2c(C)cc(C)cc2C)n(CCNC(N)=O)c1=O [Compound 7, (E)-1-(2-(2-(mesitylimino)-9-methoxy-10-(methoxy-d3)-4-oxo-6,7-dihydro-2H-pyrimido[6,1-a]isoquinolin-3(4H)-yl)ethyl)urea]
IC50 [1, 7]: < 50 nM
IC50 [1, 8]: 0.17 nM
Inhibition rate on bronchoconstriction [2]: 80%
OT50 (50% inhibition onset time) [3]: 19.97 min
RT50 (50% inhibition recovery time) [3]: >6.75 h
inhibition at 10 µM [3]: 75.9%

COc1cc2c(cc1OC)-c1c/c(=N\c3c(C)cc(F)cc3C)n(CCNC(N)=O)c(=O)n1CC2 [Compound 5, (E)-1-(2-(2-((4-fluoro-2,6-dimethylphenyl)imino)-9,10-dimethoxy-4-oxo-6,7-dihydro-2H-pyrimido[6,1-a]isoquinolin-3(4H)-yl)ethyl)urea]
IC50 [1, 7]: 50 to 100 nM

COc1cc2c(cc1OC)-c1c/c(=N\c3c(C)cc(C4CC4)cc3C)n(CCNC(N)=O)c(=O)n1CC2 [Compound 3, (E)-1-(2-(2-((4-cyclopropyl-2,6-dimethylphenyl)imino)-9,10-dimethoxy-4-oxo-6,7-dihydro-2H-pyrimido[6,1-a]isoquinolin-3(4H)-yl)ethyl)urea]
IC50 [1, 7]: < 50 nM

COc1cc2c(cc1OC)-c1c/c(=N\c3c(C)cc(C(F)(F)F)cc3C)n(CCNC(N)=O)c(=O)n1CC2 [Compound 2, (E)-1-(2-(2-((2,6-dimethyl-4-(trifluoromethyl)phenyl)imino)-9,10-dimethoxy-4-oxo-6,7-dihydro-2H-pyrimido[6,1-a]isoquinolin-3(4H)-yl)ethyl)urea]
IC50 [1]: 50 to 100 nM

COc1cc2c(cc1OC)-c1c/c(=N\c3c(C)cc(C)cc3C)n(CCNC(N)=O)c(=O)n1CC2 [RPL554, reference compound]
plasma clearance [4]: high plasma clearance
PDE4 inhibitory activity [5]: unsatisfactory
solubility [6]: poor solubility
Inhibition rate on bronchoconstriction [2]: 35%
OT50 (50% inhibition onset time) [3]: 25.51 min
RT50 (50% inhibition recovery time) [3]: >6.75 h
inhibition at 10 µM [3]: 56.7%

[2H]C([2H])([2H])Oc1cc2c(cc1OC)-c1c/c(=N\c3c(C)cc(C)cc3C)n(CCNC(N)=O)c(=O)n1CC2 [Compound 1, (E)-1-(2-(2-(mesitylimino)-10-methoxy-9-(methoxy-d3)-4-oxo-6,7-dihydro-2H-pyrimido[6,1-a]isoquinolin-3(4H)-yl)ethyl)urea]
IC50 [1, 7]: < 50 nM
IC50 [1, 8]: 0.15 nM
Inhibition rate on bronchoconstriction [2]: 69%
